Test results published in paper PMC13077603, “Fluorine‐18‐Labeled Nucleotide Analogs Targeting Ecto‐5'‐Nucleotidase (CD73) for Positron Emission Tomography Imaging of Solid Tumors” (Angewandte Chemie (International Ed. in English), 2026).

Assays:
[1] = molecular target: T1, Soluble recombinant rat CD73 (Rattus norvegicus, UniProt P21588); assay: CD73 enzyme inhibition assay, soluble rat CD73; assay type: biochemical; conditions: soluble recombinant rat CD73, Km 59 µM, substrate AMP (5 µM)
T1 sequence (P21588 29-551 limits assumed): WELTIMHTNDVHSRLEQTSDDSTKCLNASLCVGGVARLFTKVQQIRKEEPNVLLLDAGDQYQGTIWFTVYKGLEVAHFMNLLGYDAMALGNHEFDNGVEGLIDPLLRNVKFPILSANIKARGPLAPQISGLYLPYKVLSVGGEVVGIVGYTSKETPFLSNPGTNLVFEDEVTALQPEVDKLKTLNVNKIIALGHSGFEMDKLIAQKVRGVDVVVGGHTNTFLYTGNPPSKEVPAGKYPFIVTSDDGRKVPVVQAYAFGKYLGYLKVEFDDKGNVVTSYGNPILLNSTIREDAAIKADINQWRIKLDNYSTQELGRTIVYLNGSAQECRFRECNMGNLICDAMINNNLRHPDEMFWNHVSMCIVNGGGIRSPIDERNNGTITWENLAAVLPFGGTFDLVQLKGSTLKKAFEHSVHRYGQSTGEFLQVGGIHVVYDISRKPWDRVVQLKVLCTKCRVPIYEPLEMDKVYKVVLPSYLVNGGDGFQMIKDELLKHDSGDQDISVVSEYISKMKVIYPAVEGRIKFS
Method: Both compounds were evaluated for metabolic stability in mouse liver microsomes (MLM) and plasma protein binding (PPB) (Table 1).
(§1) The CD73 enzyme inhibition assay of recombinant soluble CD73, membrane-bound human CD73, soluble rat CD73 and mouse CD73 was performed as previously described.^[16,35^]

[2] = molecular target: T2, Human membrane‐bound CD73 (membrane preparation of MDA‐MB‐231 cell line) (Homo sapiens, UniProt P21589); assay: CD73 enzyme inhibition assay, human membrane-bound CD73; assay type: biochemical; conditions: membrane preparation of human TNBC MDA‐MB‐231 cell line, Km 14.8 µM, substrate AMP (5 µM)
T2 construct: endogenous in cells; host or cells: MDA-MB-231 (human triple-negative breast cancer) membrane preparation
T2 sequence (P21589 27-574): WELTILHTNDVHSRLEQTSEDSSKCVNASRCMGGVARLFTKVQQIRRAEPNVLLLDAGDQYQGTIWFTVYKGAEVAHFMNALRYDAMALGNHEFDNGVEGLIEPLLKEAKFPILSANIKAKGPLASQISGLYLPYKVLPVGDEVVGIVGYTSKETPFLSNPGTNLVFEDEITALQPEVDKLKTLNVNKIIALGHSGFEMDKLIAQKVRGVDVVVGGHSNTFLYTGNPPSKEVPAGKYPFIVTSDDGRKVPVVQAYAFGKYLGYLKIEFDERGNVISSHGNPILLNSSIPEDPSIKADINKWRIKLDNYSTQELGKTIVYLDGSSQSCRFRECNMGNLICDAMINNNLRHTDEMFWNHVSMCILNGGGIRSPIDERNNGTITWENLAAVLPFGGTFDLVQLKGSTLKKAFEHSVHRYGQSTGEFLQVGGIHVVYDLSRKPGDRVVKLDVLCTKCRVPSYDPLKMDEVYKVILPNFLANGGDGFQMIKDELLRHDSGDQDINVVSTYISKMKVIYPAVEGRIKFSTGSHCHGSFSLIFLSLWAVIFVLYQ
Method: as §1

[3] = molecular target: T3, CD73/AMPase activity in human breast tumor tissues (Homo sapiens, UniProt P21589); assay: In situ enzyme histochemistry of AMPase activity in breast tumor cryosections; assay type: biochemical; conditions: 10–50 nM inhibitor, 400 µM AMP, tissue cryosections
T3 construct: cryosections of breast tumor samples as well as sentinel lymph node samples were investigated; from tissue; host or cells: primary breast tumors and sentinel lymph nodes of two patients, 6 µm cryosections
T3 sequence (P21589 27-574): T2 sequence (P21589 27-574)
Method: Subsequent analysis of CD73‐mediated AMPase activities was performed by incubating tissue cryosections with AMP and CD73 inhibitors at different concentrations. Figure 2 depicts representative images of AMP‐specific staining in breast tumors from patient X (panel A) and patient Y (panel B), determined in the absence (control) and in the presence of 10 nM of the potent CD73 inhibitor 1.
FIGURE 3 Effects of CD73 inhibitors on AMPase activity in human breast tumor tissues. The effects of CD73 inhibitors on AMPase activity was determined in situ by incubating primary breast tumor samples from patient X (A) and patient Y (B) with 400 µM AMP and 1.5 mM Pb(NO3)2 in the absence (control) and the presence of the indicated concentrations of CD73 inhibitor. (C). Mean pixel intensities of brown staining due to the hydrolysis of AMP leading to Pb3(PO4)2 precipitation were quantified in the selected regions and expressed as arbitrary units (AU) (mean ± SEM; n = 2). Scale bars: 2 mm (A, B), and 500 µm (A, right insets).
For the localization of AMPase activities in human tumors, the lead nitrate-based enzyme histochemistry was employed. […] AMPase activity was determined by measuring AMP-specific brown staining intensities from the images using QuPath v.0.3.0 software. […] The average DAB intensity levels were measured as described earlier.^[39^] […]

[4] = molecular target: Human serum albumin (HSA) (Homo sapiens, UniProt P02768); assay: Plasma protein binding (human serum albumin binding); assay type: in vitro ADME; conditions: human serum albumin, read-out: Plasma protein binding (PPB) (converted)
Method: Human serum albumin (HSA) binding.
Plasma protein binding was determined following previously published procedure.^[38^]

Human serum albumin (HSA), sequence (P02768 25-609): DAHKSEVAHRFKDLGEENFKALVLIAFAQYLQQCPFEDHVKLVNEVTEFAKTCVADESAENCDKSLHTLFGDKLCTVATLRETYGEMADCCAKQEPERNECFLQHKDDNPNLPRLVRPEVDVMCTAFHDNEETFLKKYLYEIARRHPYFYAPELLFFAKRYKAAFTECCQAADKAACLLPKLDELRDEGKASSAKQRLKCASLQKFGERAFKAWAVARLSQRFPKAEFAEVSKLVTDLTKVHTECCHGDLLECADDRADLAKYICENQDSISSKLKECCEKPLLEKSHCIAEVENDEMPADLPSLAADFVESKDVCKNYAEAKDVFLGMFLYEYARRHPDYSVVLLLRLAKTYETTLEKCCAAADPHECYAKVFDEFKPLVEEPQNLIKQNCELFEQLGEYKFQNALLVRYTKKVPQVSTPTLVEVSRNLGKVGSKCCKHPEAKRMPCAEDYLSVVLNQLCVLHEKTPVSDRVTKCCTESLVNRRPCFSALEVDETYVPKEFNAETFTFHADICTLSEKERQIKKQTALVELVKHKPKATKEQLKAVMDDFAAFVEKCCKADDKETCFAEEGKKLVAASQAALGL

Ki [1]: 6.09 nM
Ki [2]: 2.78 nM
Reduction of CD73/AMPase activity in the breast TME [3]: 60%–70
fraction unbound [4]: < 0.01
Structure (SMILES): CCCN(Cc1ccc(-c2cn(CCF)nn2)cc1)c1nc(Cl)nc2c1ncn2[C@@H]1O[C@H](COP(=O)(O)CP(=O)(O)O)[C@@H](O)[C@H]1O [compound 1]
